In publication PMC11530689, “Anti colorectal cancer activity and in silico studies of novel pyridine nortopsentin analog as cyclin dependent kinase 6 inhibitor” (Scientific Reports, 2024):

Tests used:
Experiment in all cases: NCI 60 cell line screen
[1] = tested on: 786-0; type: cell-based; conditions: 786-0, Renal Cancer; single concentration 10^−5 M
Description: (§1) The cytotoxic activity of nortopsintin analogs (4a-4j) was determined by the national cancer institute (NCI, Bethesda, Maryland, USA) against 60 different cancer cell lines at a single concentration of (10^-5 M). For the determination of IC50 value, we used MTT assay kit (Sigma) according to the manufacturer's protocol. HCT-116 cells were seeded into a 96-well plate at a concentration of 20,000 cells/well. After 24 h, the media was aspirated and replaced with serum-free media containing serial dilutions of the 4i compound. […] The percentage of cytotoxicity was calculated using the following equation: % Cytotoxicity = [1 - ([…])] × 100.

[2] = tested on: A498; type: cell-based; conditions: A498, Renal Cancer; single concentration 10^−5 M
Description: as §1

[3] = tested on: A549/ATCC; type: cell-based; conditions: Non-Small Cell Lung Cancer, single concentration 10^−5 M
Description: as §1

[4] = tested on: BT-549; type: cell-based; conditions: BT-549, Breast Cancer; single concentration 10^−5 M
Description: as §1

[5] = tested on: CAKI-1; type: cell-based; conditions: CAKI-1, Renal Cancer; single concentration 10^−5 M
Description: as §1

[6] = tested on: COLO205; type: cell-based; conditions: COLO205, Colon Cancer; single concentration 10^−5 M
Description: as §1

[7] = tested on: EKVX; type: cell-based; conditions: Non-Small Cell Lung Cancer, single concentration 10^−5 M
Description: as §1

[8] = tested on: HCC-2998; type: cell-based; conditions: HCC-2998, Colon Cancer; single concentration 10^−5 M
Description: as §1

[9] = tested on: HCT-15; type: cell-based; conditions: HCT-15, Colon Cancer; single concentration 10^−5 M
Description: as §1

[10] = tested on: HT29; type: cell-based; conditions: HT29, Colon Cancer; single concentration 10^−5 M
Description: as §1

[11] = tested on: IGROV1; type: cell-based; conditions: IGROV1, Ovarian Cancer; single concentration 10^−5 M
Description: as §1

[12] = tested on: KM12; type: cell-based; conditions: KM12, Colon Cancer; single concentration 10^−5 M
Description: as §1

[13] = tested on: M14; type: cell-based; conditions: M14, Melanoma; single concentration 10^−5 M
Description: as §1

[14] = tested on: MCF7; type: cell-based; conditions: MCF7, Breast Cancer; single concentration 10^−5 M
Description: as §1

[15] = tested on: MDA-MB-231/ATCC; type: cell-based; conditions: Breast Cancer, single concentration 10^−5 M
Description: as §1

[16] = tested on: MDA-MB-435; type: cell-based; conditions: MDA-MB-435, Melanoma; single concentration 10^−5 M
Description: as §1

[17] = tested on: MDA-MB-468; type: cell-based; conditions: MDA-MB-468, Breast Cancer; single concentration 10^−5 M
Description: as §1

[18] = tested on: NCI-H226; type: cell-based; conditions: NCI-H226, Non-Small Cell Lung Cancer; single concentration 10^−5 M
Description: as §1

[19] = tested on: NCI-H23; type: cell-based; conditions: NCI-H23, Non-Small Cell Lung Cancer; single concentration 10^−5 M
Description: as §1

[20] = tested on: NCI/ADR-RES; type: cell-based; conditions: Ovarian Cancer, single concentration 10^−5 M
Description: as §1

[21] = tested on: OVCAR-3; type: cell-based; conditions: OVCAR-3, Ovarian Cancer; single concentration 10^−5 M
Description: as §1

[22] = tested on: OVCAR-4; type: cell-based; conditions: OVCAR-4, Ovarian Cancer; single concentration 10^−5 M
Description: as §1

[23] = tested on: OVCAR-8; type: cell-based; conditions: OVCAR-8, Ovarian Cancer; single concentration 10^−5 M
Description: as §1

[24] = tested on: PC-3; type: cell-based; conditions: PC-3, Prostate Cancer; single concentration 10^−5 M
Description: as §1

[25] = tested on: RPMI-8226; type: cell-based; conditions: RPMI-8226, Leukemia; single concentration 10^−5 M
Description: as §1

[26] = tested on: RXF 393; type: cell-based; conditions: RXF 393, Renal Cancer; single concentration 10^−5 M
Description: as §1

[27] = tested on: SF-539; type: cell-based; conditions: SF-539, CNS Cancer; single concentration 10^−5 M
Description: as §1

[28] = tested on: SK-MEL-5; type: cell-based; conditions: SK-MEL-5, Melanoma; single concentration 10^−5 M
Description: as §1

[29] = tested on: SK-OV-3; type: cell-based; conditions: SK-OV-3, Ovarian Cancer; single concentration 10^−5 M
Description: as §1

[30] = tested on: SNB-75; type: cell-based; conditions: SNB-75, CNS Cancer; single concentration 10^−5 M
Description: as §1

[31] = tested on: TK-10; type: cell-based; conditions: TK-10, Renal Cancer; single concentration 10^−5 M
Description: as §1

[32] = tested on: U251; type: cell-based; conditions: U251, CNS Cancer; single concentration 10^−5 M
Description: as §1

[33] = tested on: UACC-257; type: cell-based; conditions: UACC-257, Melanoma; single concentration 10^−5 M
Description: as §1

[34] = tested on: UACC-62; type: cell-based; conditions: UACC-62, Melanoma; single concentration 10^−5 M
Description: as §1

[35] = tested on: UO-31; type: cell-based; conditions: UO-31, Renal Cancer; single concentration 10^−5 M
Description: as §1

[36] = tested on: HCT-116; type: cell-based, human; conditions: HCT-116, Colon Cancer; single concentration 10^−5 M
Description: as §1

COc1cc(-c2cc(-c3c[nH]c4ccccc34)nc(-c3c[nH]c4ccccc34)c2C#N)cc(OC)c1OC [4g] gave a Growth % [1] of 102.99%, a Growth % [2] of 103.11% and a Growth % [3] of 99.60%. It also gave a Growth % [4] of 101.50%, a Growth % [5] of 75.97% and a Growth % [6] of 106.57%. For the same compound, the Growth % [7] was 87.27%, the Growth % [8] was 107.87% and the Growth % [9] was 100.84%. It also gave a Growth % [10] of 105.35%, a Growth % [11] of 74.20% and a Growth % [12] of 99.69%. It also gave a Growth % [13] of 98.40%, a Growth % [14] of 88.35% and a Growth % [15] of 82.84%. The Growth % [16] was 100.31%, the Growth % [17] was 93.79% and the Growth % [18] was 87.22%. It also gave a Growth % [19] of 93.03%, a Growth % [20] of 100.17% and a Growth % [21] of 102.73%. The Growth % [22] was 103.83%, the Growth % [23] was 98.26% and the Growth % [24] was 91.47%. It also gave a Growth % [25] of 97.18%, a Growth % [26] of 120.31% and a Growth % [27] of 93.66%. It also gave a Growth % [28] of 98.25%, a Growth % [29] of 97.19% and a Growth % [30] of 77.85%. It also gave a Growth % [31] of 128.09%, a Growth % [32] of 100.17% and a Growth % [33] of 104.77%. It also gave a Growth % [34] of 87.61%, a Growth % [35] of 65.92% and a Growth % [36] of 104.41%.

N#Cc1c(-c2ccc([N+](=O)[O-])cc2)cc(-c2c[nH]c3ccccc23)nc1-c1c[nH]c2ccccc12 [4h] was tested, and the Growth % [1] was 106.06%, the Growth % [2] was 99.31% and the Growth % [3] was 96.38%. For the same compound, the Growth % [4] was 108.68%, the Growth % [5] was 82.68% and the Growth % [6] was 114.22%. It also gave a Growth % [7] of 82.20%, a Growth % [8] of 108.98% and a Growth % [9] of 99.04%. For the same compound, the Growth % [10] was 111.20%, the Growth % [11] was 81.21% and the Growth % [12] was 98.09%. For the same compound, the Growth % [13] was 97.98%, the Growth % [14] was 90.39% and the Growth % [15] was 96.84%. For the same compound, the Growth % [16] was 104.27%, the Growth % [17] was 92.34% and the Growth % [18] was 87.03%. For the same compound, the Growth % [19] was 97.26%, the Growth % [20] was 96.36% and the Growth % [21] was 97.76%. The Growth % [22] was 99.28%, the Growth % [23] was 98.23% and the Growth % [24] was 93.76%. It also gave a Growth % [25] of 95.92%, a Growth % [26] of 111.16% and a Growth % [27] of 97.59%. It also gave a Growth % [28] of 97.67%, a Growth % [29] of 90.72% and a Growth % [30] of 90.31%. The Growth % [31] was 142.08%, the Growth % [32] was 99.87% and the Growth % [33] was 104.66%. It also gave a Growth % [34] of 85.82%, a Growth % [35] of 70.38% and a Growth % [36] of 100.64%.

CN(C)c1ccc(-c2cc(-c3c[nH]c4ccccc34)nc(-c3c[nH]c4ccccc34)c2C#N)cc1 [4i] showed a Growth % [1] of 99.08%, a Growth % [2] of 98.45% and a Growth % [3] of 89.56%. The Growth % [4] was 103.60%, the Growth % [5] was 68.37% and the Growth % [6] was 91.18%. The Growth % [7] was 93.75%, the Growth % [8] was 88.23% and the Growth % [9] was 44.65%. The Growth % [10] was 63.02%, the Growth % [11] was 74.28% and the Growth % [12] was 58.37%. The Growth % [13] was 97.66%, the Growth % [14] was 49.30% and the Growth % [15] was 99.81%. It also gave a Growth % [16] of 81.62%, a Growth % [17] of 81.79% and a Growth % [18] of 79.62%. The Growth % [19] was 88.40%, the Growth % [20] was 90.91% and the Growth % [21] was 91.03%. The Growth % [22] was 95.26%, the Growth % [23] was 96.39% and the Growth % [24] was 89.56%. The Growth % [25] was 69.39%, the Growth % [26] was 106.90% and the Growth % [27] was 75.80%. The Growth % [28] was 96.50%, the Growth % [29] was 94.88% and the Growth % [30] was 86.73%. It also gave a Growth % [31] of 107.28%, a Growth % [32] of 92.50% and a Growth % [33] of 101.12%. For the same compound, the Growth % [34] was 85.78%, the Growth % [35] was 72.88% and the Growth % [36] was 57.78%.
